This test has as its system adenylate cyclase. The experiment in a line: Adenylate cyclase activity of rabbit cardiac membranes by enzymatic fluorometric assay (ATP-ADP cycling), radioimmunoassay and Salomon's method. The class given is biochemical. The following applies: isoproterenol 10^-7 and 10^-6 M; NaF 10^-2 M; GppNHp 10^-4 M; carbachol 10^-6 M; adenosine 10^-3 M; three methods. Here is the method:
Adenylate cyclase activities of six different rabbit cardiac membranes under basal and drug treated conditions were assessed using the fluorometric method of the present invention, radioimmunoassay and original [alpha-^32 P] ATP method developed by Salomon. The first part of the non-radioactive fluorescent technique for measuring adenylate cyclase activity is similar to the method described in Example 2 except that 3-isobutyl-1-methylxanthine (IBMX), rather than theophylline, was used to inhibit phosphodiesterase activity. Furthermore, a series of ATP-ADP enzyme-cycling reactions was used to amplify the cAMP signal, rather then the AMP stimulation of glycogen phosphorylase a utilized in previous examples. Use of the ATP-ADP enzymatic cycling amplification step can lengthen the assay duration, depending upon the desired assay sensitivity.
A volume of 1.0 μl of either H2 O, isoproterenol, NaF, guanylyl-5'-imidodiphosphate (GppNHp), carbachol, and adenosine was added to each of six reaction tubes on ice. Next, 25 μl of cyclase mix (100 mM Tris-acetate, pH 7.4; 4.2 mM KCl; 10 mM MgCl2; 20 mM phosphoenolpyruvate; 2 mM ATP; 20 μM GTP; 2 mM dithiothreitol; 0.04% bovine serum albumin; 0.2 mM 3-isobutyl-1-methylxanthine (IBMX); 100 μg/ml pyruvate kinase) was added to each reaction tube. The stored membrane was diluted with SET buffer in a concentration of 1.5 mg of protein/ml. Finally, 25 μl of membrane suspension, which contained 37.5 μg of protein, was added to each tube, and the reaction was initiated by placing the tubes in a water bath maintained at 37° C. After 30 minutes, the reaction was terminated by heating at 90° C. for 5 minutes. […] Then, 25 μl of cyclase mix and 25 μl of boiled membrane preparation were added to each tube. After 30 minutes, the reaction was terminated by heating at 90° C. for 5 minutes.
A volume of 5 μl of reaction of product from Part A was transferred to Pyrex® tubes. For external cAMP standard, a same volume of known amount of cAMP was also added to assay tubes. Newly synthesized cAMP was measured using the following enzymatic fluorometric assay.
1. A volume of 25 μl of "cleaning" reaction mix (100 mM Tris HCl, pH 8.0; 2 mM MgCl2; 2 units/ml apyrase; 2.5 units/ml 5'-nucleotidase; 50 μg/ml adenosine deaminase; 20 units/ml alkaline phosphatase) was added to each assay tube. The mixture was incubated at 37° C. for 30 minutes. Enzymes were then destroyed by heating for 10 minutes at 90° C.
2. A volume of 25 μl of a phosphodiesterase-containing reaction mix (100 mM Tris-HCl pH 8.0; 2 mM MgCl2; 0.01% bovine serum albumin; 60 μg/m; phosphodiesterase) was added to each assay tube from Step 1. After 60 minutes at 37° C., the assay tubes were heated at 90° C. for 5 minutes.
3. A volume of 25 μl of myokinase reaction mix (100 mM Tris-HCl, pH 8.0; 2 mM MgCl2; 225 mM KCl; 200 nM ATP; 8 mM phosphoenolpyruvate; 2 mM dithiothreitol; 0.01% bovine serum albumin; 24 μg/ml myokinase; 50 μg/ml pyruvate kinase) was added to the assay tubes from Step 2. The reactions were incubated at 37° C. for 2 hours.
4. […]
5. […] After 15 minutes at room temperature, the final concentration of NADPH was measured using a fluorometer (Optical Technology Devices, Inc., New York). The fluorometer was set such that a reading of 1 fluorometric unit was equivalent to 100 pmol of NADPH in 900 μl of buffer (50 mM Tris-HCl, pH 8.0). […]

In the case of `CC(C)NCC(O)c1ccc(O)c(O)c1` (centres unmarked) [isoproterenol], the “effect on cAMP production” value is recorded as “increased cAMP production, in a concentration-dependent manner”. As to `[F-].[Na+]` [NaF, Sodium Fluoride], the “effect on cAMP production” value is “increased production”.
